Assay results published in ChEMBL document CHEMBL5260828, “Amphiphilic glycoconjugates as potential anti-cancer chemotherapeutics” (Eur J Med Chem, 2018).
Values after ≈ are worked out from the molar mass of the structure shown.

Key:
HCT-116 = experiment: Cytotoxicity against human HCT-116 cells assessed as cell growth inhibition incubated for 72 hrs by celltiter 96 aqueous cell proliferation assay; type: functional, cell-based; conditions: HCT-116, 72 h
SGC-7901 = experiment: Cytotoxicity against human SGC-7901 cells incubated for 48 hrs by MTT assay; type: functional, cell-based; conditions: SGC-7901, 48 h
HepG2 = experiment: Cytotoxicity against human HepG2 cells incubated for 48 hrs by MTT assay; type: functional, cell-based; conditions: HepG2, 48 h
MCF7 = experiment: Cytotoxicity against human MCF7 cells incubated for 48 hrs by MTT assay; type: functional, cell-based; conditions: MCF7, 48 h
A549 [1] = experiment: Cytotoxicity against human A549 cells incubated for 48 hrs by MTT assay; type: functional, cell-based; conditions: A549, 48 h
HeLa = experiment: Cytotoxicity against human HeLa cells incubated for 48 hrs by MTT assay; type: functional, cell-based
[2] = target: RAC-alpha serine/threonine-protein kinase (Homo sapiens, UniProt P31749); experiment: Inhibition of AKT1 (unknown origin) in presence of ATP by ELISA
Chain of RAC-alpha serine/threonine-protein kinase (P31749 whole entry): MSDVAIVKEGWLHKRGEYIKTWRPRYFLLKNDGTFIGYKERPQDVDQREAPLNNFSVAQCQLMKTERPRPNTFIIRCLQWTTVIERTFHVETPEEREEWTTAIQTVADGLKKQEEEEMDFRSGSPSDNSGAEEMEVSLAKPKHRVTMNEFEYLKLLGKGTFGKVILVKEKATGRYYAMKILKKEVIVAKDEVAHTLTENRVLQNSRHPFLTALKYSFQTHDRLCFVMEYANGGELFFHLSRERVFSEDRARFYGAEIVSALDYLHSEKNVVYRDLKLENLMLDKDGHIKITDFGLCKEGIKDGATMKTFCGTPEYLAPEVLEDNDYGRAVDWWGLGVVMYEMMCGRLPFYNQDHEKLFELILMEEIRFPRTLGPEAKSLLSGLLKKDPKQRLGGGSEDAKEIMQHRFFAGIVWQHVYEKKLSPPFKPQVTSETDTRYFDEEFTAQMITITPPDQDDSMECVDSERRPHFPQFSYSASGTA

Fatty acid synthase = Fatty acid synthase (Gallus gallus, UniProt P12276); experiment: Inhibition of Fatty acid synthase in chicken liver using [3H]-acetyl CoA as substrate preincubated for 30 mins followed by substrate addition and measured after 10 mins in presence of NADPH by scintillation counting analysis; type: tissue-based
Chain of Fatty acid synthase (P12276 whole entry): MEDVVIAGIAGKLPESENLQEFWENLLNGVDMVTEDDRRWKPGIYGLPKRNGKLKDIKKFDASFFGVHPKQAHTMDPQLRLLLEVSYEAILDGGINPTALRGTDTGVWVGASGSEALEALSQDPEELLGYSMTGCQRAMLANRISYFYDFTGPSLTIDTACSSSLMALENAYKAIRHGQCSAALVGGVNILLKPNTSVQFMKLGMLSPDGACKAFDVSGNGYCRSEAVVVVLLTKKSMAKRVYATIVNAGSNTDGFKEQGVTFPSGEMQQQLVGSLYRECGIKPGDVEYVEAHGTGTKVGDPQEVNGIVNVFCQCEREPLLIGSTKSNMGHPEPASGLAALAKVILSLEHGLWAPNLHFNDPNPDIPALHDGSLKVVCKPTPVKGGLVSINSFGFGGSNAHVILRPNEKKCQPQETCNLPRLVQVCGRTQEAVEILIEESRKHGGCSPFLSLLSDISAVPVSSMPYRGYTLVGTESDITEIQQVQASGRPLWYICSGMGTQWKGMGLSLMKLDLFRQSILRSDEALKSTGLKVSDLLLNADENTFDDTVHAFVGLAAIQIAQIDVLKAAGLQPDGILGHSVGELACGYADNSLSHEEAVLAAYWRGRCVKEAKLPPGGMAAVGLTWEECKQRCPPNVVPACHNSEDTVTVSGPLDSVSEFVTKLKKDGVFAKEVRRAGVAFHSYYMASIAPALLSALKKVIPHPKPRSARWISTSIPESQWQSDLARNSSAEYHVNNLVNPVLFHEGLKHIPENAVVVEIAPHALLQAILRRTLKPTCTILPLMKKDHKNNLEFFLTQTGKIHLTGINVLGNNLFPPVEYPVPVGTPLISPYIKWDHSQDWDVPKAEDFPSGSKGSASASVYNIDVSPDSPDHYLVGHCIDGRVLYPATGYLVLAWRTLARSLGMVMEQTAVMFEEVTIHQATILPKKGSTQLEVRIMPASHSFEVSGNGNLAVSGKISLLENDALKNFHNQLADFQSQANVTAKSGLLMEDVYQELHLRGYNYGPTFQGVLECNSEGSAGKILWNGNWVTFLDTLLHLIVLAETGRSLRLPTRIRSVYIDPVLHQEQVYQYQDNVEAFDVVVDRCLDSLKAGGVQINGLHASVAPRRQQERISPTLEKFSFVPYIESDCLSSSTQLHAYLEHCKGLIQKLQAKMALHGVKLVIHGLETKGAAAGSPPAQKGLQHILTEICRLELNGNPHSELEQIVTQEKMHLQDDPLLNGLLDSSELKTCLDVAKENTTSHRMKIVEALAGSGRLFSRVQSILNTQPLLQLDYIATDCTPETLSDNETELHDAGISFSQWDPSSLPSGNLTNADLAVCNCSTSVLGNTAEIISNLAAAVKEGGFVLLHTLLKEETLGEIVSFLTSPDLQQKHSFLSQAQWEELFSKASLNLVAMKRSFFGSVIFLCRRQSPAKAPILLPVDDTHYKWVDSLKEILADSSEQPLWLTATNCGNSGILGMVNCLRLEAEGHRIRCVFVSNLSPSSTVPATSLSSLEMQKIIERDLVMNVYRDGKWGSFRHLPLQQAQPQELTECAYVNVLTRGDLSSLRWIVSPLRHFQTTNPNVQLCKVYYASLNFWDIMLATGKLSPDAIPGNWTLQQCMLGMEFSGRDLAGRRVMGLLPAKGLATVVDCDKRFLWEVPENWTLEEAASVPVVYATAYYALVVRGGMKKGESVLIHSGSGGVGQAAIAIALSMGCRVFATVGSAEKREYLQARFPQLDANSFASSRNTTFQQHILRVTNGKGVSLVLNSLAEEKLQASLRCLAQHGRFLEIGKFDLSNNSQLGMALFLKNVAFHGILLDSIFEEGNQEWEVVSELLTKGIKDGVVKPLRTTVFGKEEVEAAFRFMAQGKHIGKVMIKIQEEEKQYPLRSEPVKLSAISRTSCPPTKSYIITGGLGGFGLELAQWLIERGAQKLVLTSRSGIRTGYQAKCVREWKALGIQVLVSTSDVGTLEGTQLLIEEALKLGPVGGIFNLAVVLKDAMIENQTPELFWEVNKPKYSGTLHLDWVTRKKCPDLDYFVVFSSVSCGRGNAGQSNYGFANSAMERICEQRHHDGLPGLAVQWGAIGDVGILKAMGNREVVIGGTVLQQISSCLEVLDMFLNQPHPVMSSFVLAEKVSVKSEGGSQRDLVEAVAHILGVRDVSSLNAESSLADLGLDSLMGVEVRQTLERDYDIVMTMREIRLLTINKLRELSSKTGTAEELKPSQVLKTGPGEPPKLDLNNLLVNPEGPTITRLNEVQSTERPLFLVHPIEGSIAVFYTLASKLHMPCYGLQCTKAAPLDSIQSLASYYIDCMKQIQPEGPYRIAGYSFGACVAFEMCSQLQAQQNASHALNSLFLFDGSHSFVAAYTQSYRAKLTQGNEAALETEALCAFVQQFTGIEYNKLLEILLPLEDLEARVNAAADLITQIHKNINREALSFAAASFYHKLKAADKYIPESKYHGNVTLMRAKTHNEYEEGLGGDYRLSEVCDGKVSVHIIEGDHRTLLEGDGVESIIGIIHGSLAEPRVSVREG

A549 [3] = experiment: Cytotoxicity against human A549 cells incubated for 72 hrs by MTT assay; type: functional, cell-based; conditions: A549, 72 h
K562 = experiment: Cytotoxicity against human K562 cells; type: functional, cell-based
MIA PaCa-2 = experiment: Cytotoxicity against human MIA PaCa-2 cells assessed as reduction in cell viability incubated for 48 hrs by MTS assay; type: functional, cell-based; conditions: for CC50: MIA PaCa-2, time 48 hrs; for IC50: MIA PaCa-2, 48 h
DU-145 = experiment: Cytotoxicity against human DU-145 cells assessed as reduction in cell viability incubated for 48 hrs by MTS assay; type: functional, cell-based; conditions: for CC50: DU-145, time 48 hrs; for IC50: DU-145, 48 h
PC-3 = experiment: Cytotoxicity against human PC-3 cells assessed as reduction in cell viability incubated for 48 hrs by MTS assay; type: functional, cell-based; conditions: for CC50: PC-3, time 48 hrs; for IC50: PC-3, 48 h
JIMT-1 = experiment: Cytotoxicity against human JIMT-1 cells assessed as reduction in cell viability incubated for 48 hrs by MTS assay; type: functional, cell-based; conditions: for CC50: JIMT-1, time 48 hrs; for IC50: JIMT-1, 48 h
MDA-MB-231 = experiment: Cytotoxicity against human MDA-MB-231 cells assessed as reduction in cell viability incubated for 48 hrs by MTS assay; type: functional, cell-based; conditions: for CC50: MDA-MB-231, time 48 hrs; for IC50: MDA-MB-231, 48 h
BT-474 = experiment: Cytotoxicity against human BT-474 cells assessed as reduction in cell viability incubated for 48 hrs by MTS assay; type: functional, cell-based; conditions: for CC50: BT-474, time 48 hrs; for IC50: BT-474, 48 h
HeLa S3 = experiment: Cytotoxicity against human HeLa S3 cells; type: functional, cell-based; conditions: Homo sapiens, HeLa S3; read-out: IC50

CO[C@@H]1/C=C(\C)C[C@H](/C=C/C#C[C@H]2C[C@@H]2Cl)OC(=O)[C@@H](C)[C@]2(O)C[C@H](O[C@@H]3O[C@@H](C)[C@H](O)[C@@](C)(O)[C@H]3O[C@@H]3O[C@@H](C)[C@H](O)[C@@](C)(O)[C@H]3OC)[C@@H](C)[C@@H](O2)[C@@H]1C
IC50 (HCT-116): 10.2 µM

CCCCCCCCCC(=O)O[C@H]1[C@H](O[C@@H]2[C@H]3OC(=O)CCCCCCCCC[C@@H](CCCCC)O[C@@H]4O[C@H](CO)[C@@H](O)[C@H](O)[C@H]4O[C@H](O[C@H]2C)[C@@H]3O)O[C@@H](C)[C@H](O[C@@H]2O[C@@H](C)[C@H](OC(=O)[C@@H](C)CC)[C@@H](O)[C@H]2O)[C@H]1O[C@@H]1O[C@@H](C)[C@H](O)[C@@H](O)[C@H]1O
IC50 (SGC-7901): 4.28 µM | IC50 (HepG2): 4.28 µM | IC50 (MCF7): 4.28 µM | IC50 (A549 [1]): 4.28 µM | IC50 (HeLa): 4.28 µM

CCCCC[C@@H]1CCCCCCCCCC(=O)O[C@H]2[C@@H](O)[C@H](O[C@H]3[C@H](O1)O[C@H](CO)[C@@H](O)[C@@H]3O)O[C@@H](C)[C@@H]2O[C@@H]1O[C@@H](C)[C@H](O[C@@H]2O[C@@H](C)[C@H](OC(=O)[C@@H](C)CC)[C@@H](OC(=O)/C=C/c3ccccc3)[C@H]2O)[C@@H](O[C@@H]2O[C@@H](C)[C@H](O)[C@@H](O)[C@H]2O)[C@H]1OC(=O)[C@@H](C)CC
IC50 (SGC-7901): 4.28 µM | IC50 (HepG2): 4.28 µM | IC50 (MCF7): 4.28 µM | IC50 (A549 [1]): 4.28 µM | IC50 (HeLa): 4.28 µM

CCCCCCCCCCCCCCCCCC(=O)OCC(COC(=O)CCCCCCCCCCCCCCCCC)O[C@@H]1O[C@H](C(=O)O)[C@@H](O)[C@H](O)[C@H]1O
IC50 [2]: > 100 µM

CC/C=C\C/C=C\C/C=C\CCCCCCCC(=O)OC[C@H](CO[C@@H]1O[C@H](CO[C@H]2O[C@H](CO)[C@H](O)[C@H](O)[C@H]2O)[C@H](O)[C@H](O)[C@H]1O)OC(=O)CCCCCCCCCCCCCCCCC
IC50 (Fatty acid synthase): 15.6 µM

CCCCCCCCCCCCCC(=O)OCc1cn(C[C@H]2O[C@H](OC)[C@H](O)[C@@H](O)[C@@H]2O)nn1
IC50 (A549 [3]): 21 µM

CCCCCCCC(=O)O[C@H]1[C@H](O[C@@H]2[C@H]3OC(=O)CCCCCCCCC[C@@H](CCCCC)O[C@@H]4O[C@H](CO)[C@@H](O)[C@H](O)[C@H]4O[C@H](O[C@H]2C)[C@@H]3O)O[C@@H](C)[C@H](O[C@@H]2O[C@@H](C)[C@H](OC(=O)[C@@H](C)CC)[C@@H](OC(=O)/C=C/c3ccccc3)[C@H]2O)[C@H]1O[C@@H]1O[C@@H](C)[C@H](O)[C@@H](O)[C@H]1O
IC50 (SGC-7901): 4.28 µM | IC50 (HepG2): 4.28 µM | IC50 (MCF7): 4.28 µM | IC50 (A549 [1]): 4.28 µM | IC50 (HeLa): 4.28 µM

CCCCCCCCCCCCC(=O)OCc1cn(C[C@H]2O[C@H](OC)[C@H](O)[C@@H](O)[C@@H]2O)nn1
IC50 (A549 [3]): 21 µM

CCCCCCCCCCCCCCCCCCC/C=C/C(=O)OC[C@H](CO[C@@H]1O[C@H](CO[C@H]2O[C@H](CO)[C@H](O)[C@H](O)[C@H]2O)[C@H](O)[C@H](O)[C@H]1O)OC(=O)CCCCCCCCCCCCCCCCCCC
IC50 (Fatty acid synthase): 15.6 µM

CC(=O)OC[C@H]1O[C@@H](Oc2cc(C)c(O)cc2C/C=C(\C)CC/C=C(\C)CCC=C(C)C)[C@H](O)[C@@H](OC(C)=O)[C@H]1OC(C)=O
IC50 (K562): 5.2 µg/mL (≈ 8.43 µM)

CCCCCCCCCCCC(=O)OCc1cn(C[C@H]2O[C@H](OC)[C@H](O)[C@@H](O)[C@@H]2O)nn1
IC50 (A549 [3]): 21 µM

CCCCCCCCCCCCCCCCOC[C@H](CO[C@@H]1O[C@H](CN)[C@@H](O)[C@H](O)[C@H]1N)OC
CC50 (MIA PaCa-2): 3.5 µM | CC50 (DU-145): 5.2 µM | CC50 (PC-3): 3.5 µM | CC50 (JIMT-1): 3.5 µM | CC50 (MDA-MB-231): 3 µM | CC50 (BT-474): 7.5 µM

CC(=O)OC[C@H]1O[C@@H](Oc2cc(C)c(O)cc2C/C=C(\C)CC/C=C(\C)C[C@@H](O)C=C(C)C)[C@H](O)[C@@H](OC(C)=O)[C@H]1OC(C)=O
IC50 (K562): 2.6 µg/mL (≈ 4.11 µM)

CCCCCCCCCC(=O)O[C@H]1[C@H](O[C@@H]2[C@H]3OC(=O)CCCCCCCCC[C@@H](CCCCC)O[C@@H]4O[C@H](CO)[C@@H](O)[C@H](O)[C@H]4O[C@H](O[C@H]2C)[C@@H]3O)O[C@@H](C)[C@H](O[C@@H]2O[C@@H](C)[C@H](OC(=O)[C@@H](C)CC)[C@@H](OC(=O)/C=C/c3ccccc3)[C@H]2O)[C@H]1O[C@@H]1O[C@@H](C)[C@H](O)[C@@H](O)[C@H]1O
IC50 (SGC-7901): 4.28 µM | IC50 (HepG2): 4.28 µM | IC50 (MCF7): 4.28 µM | IC50 (A549 [1]): 4.28 µM | IC50 (HeLa): 4.28 µM

CC/C=C\C/C=C\C/C=C\CCCCCCCC(=O)OC[C@H](CO[C@@H]1O[C@H](CO[C@H]2O[C@H](CO)[C@H](O)[C@H](O)[C@H]2O)[C@H](O)[C@H](O)[C@H]1O)OC(=O)CCCCCCCCCCCCCCCCCCC
IC50 (Fatty acid synthase): 15.6 µM

CCCCCCCCCC(=O)O[C@H]1[C@H](O[C@@H]2[C@H]3OC(=O)CCCCCCCCC[C@@H](CCCCC)O[C@@H]4O[C@H](CO)[C@@H](O)[C@H](O)[C@H]4O[C@H](O[C@H]2C)[C@@H]3O)O[C@@H](C)[C@H](O[C@@H]2O[C@@H](C)[C@H](O/C(O)=C(/C)CC)[C@@H](O)[C@H]2OC(=O)/C=C/c2ccccc2)[C@H]1O[C@@H]1O[C@@H](C)[C@H](O)[C@@H](O)[C@H]1O
IC50 (SGC-7901): 4.28 µM | IC50 (HepG2): 4.28 µM | IC50 (MCF7): 4.28 µM | IC50 (A549 [1]): 4.28 µM | IC50 (HeLa): 4.28 µM

COC(C)(C)/C=C/C/C(C)=C/CC/C(C)=C/Cc1cc(O)c(C)cc1O[C@@H]1O[C@H](COC(C)=O)[C@H](OC(C)=O)[C@H](OC(C)=O)[C@H]1O
IC50 (K562): 9.4 µg/mL (≈ 14.5 µM)

CCCCCCCCCCCCCCCCOC[C@H](CO[C@H]1O[C@H](CN)[C@@H](O)[C@H](O)[C@H]1NC(=O)CCCc1ccc(N(CCCl)CCCl)cc1)OC
IC50 (MIA PaCa-2): 6 µM | IC50 (DU-145): 6 µM | IC50 (PC-3): 6 µM | IC50 (JIMT-1): 6 µM | IC50 (MDA-MB-231): 6 µM | IC50 (BT-474): 6 µM

CC(=O)OC[C@H]1O[C@@H](Oc2cc(C)c(O)cc2C/C=C(\C)CC/C=C(\C)CC(=O)CC(C)C)[C@H](O)[C@@H](OC(C)=O)[C@H]1OC(C)=O
IC50 (K562): 8.1 µg/mL (≈ 12.8 µM)

CCCCCCCCCCCC(=O)OCc1cn(C[C@H]2O[C@H](OC)[C@H](O)[C@@H](O)[C@H]2O)nn1
IC50 (A549 [3]): 21 µM

O=C(O)CCCc1ccc(N(CCCl)CCCl)cc1 [CHLORAMBUCIL]
CC50 (MIA PaCa-2): > 150 µM | CC50 (DU-145): > 150 µM | CC50 (PC-3): > 150 µM | CC50 (JIMT-1): > 150 µM | CC50 (MDA-MB-231): > 150 µM | CC50 (BT-474): > 150 µM

CCCCCCCCCCCCCC(=O)OCc1cn(C[C@H]2O[C@H](OC)[C@H](O)[C@@H](O)[C@H]2O)nn1
IC50 (A549 [3]): 21 µM

CC(=O)OC[C@H]1O[C@@H](Oc2cc(C)c(O)cc2C/C=C(\C)CC/C=C(\C)C[C@H](C=C(C)C)OC(C)=O)[C@H](O)[C@@H](OC(C)=O)[C@H]1OC(C)=O
IC50 (K562): 3.1 µg/mL (≈ 4.59 µM)

CCCCCCCCCCCCCCCCCCCC(=O)O[C@H](COC(=O)CCCCCCCCCCCCCCC)CO[C@@H]1O[C@H](CO[C@H]2O[C@H](CO)[C@H](O)[C@H](O)[C@H]2O)[C@H](O)[C@H](O)[C@H]1O
IC50 (Fatty acid synthase): 15.6 µM

CC/C=C\C/C=C\C/C=C\CCCCCCCC(=O)O[C@H](COC(=O)CCCCCCCCCCCCCCC)CO[C@@H]1O[C@H](CO[C@H]2O[C@H](CO)[C@H](O)[C@H](O)[C@H]2O)[C@H](O)[C@H](O)[C@H]1O
IC50 (Fatty acid synthase): 15.6 µM

CO[C@@H]1[C@@H](OC(N)=O)[C@@H](OC)[C@H](O[C@@H]2C[C@H]3O[C@@](O)(C2)[C@H](C)C(=O)O[C@@H](/C=C/C=C/Br)C/C(C)=C/C(=O)C3(C)C)O[C@H]1C
IC50 (HeLa S3): 1.2 µg/mL (≈ 1.78 µM)

CCCCCCCCCOC(=O)O[C@H](COC(=O)CCCCCCCCC)COP(=O)(O)O[C@@H]1[C@H](O)[C@H](OP(=O)(O)O)[C@@H](O)[C@H](O)[C@H]1O
IC50 [2]: > 100 µM

CCCCCCCCCCCCCCCCOC[C@H](CO[C@H]1O[C@H](CNC(=O)CCCc2ccc(N(CCCl)CCCl)cc2)[C@@H](O)[C@H](O)[C@H]1N)OC
IC50 (MIA PaCa-2): 6 µM | IC50 (DU-145): 6 µM | IC50 (PC-3): 6 µM | IC50 (JIMT-1): 6 µM | IC50 (MDA-MB-231): 6 µM | IC50 (BT-474): 6 µM

CCCCCCCCCCCCC(=O)OCc1cn(C[C@H]2O[C@H](OC)[C@H](O)[C@@H](O)[C@H]2O)nn1
IC50 (A549 [3]): 21 µM
